In PubChem BioAssay (NCI):
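Dose response: 5 concentrations. Exposure: 48 h. Format: 96-well plates. Endpoint: linear interpolation; highest concentration if not reached. Abbreviation: GI50, concentration required for 50% inhibition of growth. At the TGI there is no net growth.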

Key:
Assay in all cases: inhibition of tumour cell growth, NCI panel, 48 h
[1] = test system: ACHN renal
[2] = test system: CCRF-CEM leukemia
[3] = test system: HS 578T breast
[4] = test system: K-562 leukemia
[5] = test system: M14 melanoma
[6] = test system: NCI-H460 lung
[7] = test system: SR leukemia
[8] = test system: UACC-62 melanoma
[9] = test system: UO-31 renal

Row | Compound | TGI [1] | TGI [2] | TGI [3] | TGI [4] | TGI [5] | TGI [6] | TGI [7] | TGI [8] | TGI [9] | GI50 [1] | GI50 [2] | GI50 [3] | GI50 [5] | GI50 [6] | GI50 [7] | GI50 [9] | GI50 [4]
1 | O=[Se](O)O | 76.6 µM | > 100 µM | > 100 µM | > 100 µM | 23.4 µM | > 49.9 µM | > 28.6 µM | 4.66 µM | 7.36 µM | – | – | – | – | – | – | – | –
2 | C=C1CC(C)(c2cccc(Nc3nc4ccccc4c4occc34)c2)OC1=O (centres undefined) | 19.6 µM | 5.08 µM | 9.16 µM | – | 7.26 µM | 33.8 µM | – | 2.43 µM | 5.04 µM | – | – | – | – | – | – | – | –
3 | Cn1c(=O)sc2cc(C(=S)N3CCCCC3)ccc21 | > 100 µM | 43 µM | > 100 µM | > 100 µM | > 100 µM | > 100 µM | > 100 µM | > 100 µM | – | – | – | – | – | – | – | – | –
4 | CC(C)CCOC(=O)NC(Nc1ccc(F)cc1)(C(F)(F)F)C(F)(F)F | > 100 µM | 99.5 µM | > 100 µM | > 100 µM | > 100 µM | > 100 µM | 25.4 µM | > 100 µM | 36.5 µM | – | – | – | – | – | – | – | –
5 | COc1ccccc1NC(=O)CC(=O)NN | > 100 µM | > 100 µM | > 100 µM | > 100 µM | – | > 100 µM | > 100 µM | > 100 µM | > 100 µM | – | – | – | – | – | – | – | –
6 | Oc1ccc(-c2nc3ccccc3s2)cc1 | > 100 µM | > 100 µM | 78.8 µM | > 100 µM | > 100 µM | > 100 µM | 87.7 µM | > 100 µM | > 100 µM | – | – | – | – | – | – | – | –
7 | O=c1c2nc(-c3ccccc3)oc2n(-c2ccccc2)c(=O)n1-c1ccccc1 | > 46.4 µM | > 46.4 µM | 39.5 µM | > 46.4 µM | > 46.4 µM | > 46.4 µM | > 31.6 µM | > 46.4 µM | > 31.6 µM | – | – | – | – | – | – | – | –
8 | COc1cc(N(CCC#N)CCC#N)ccc1/C=N\NC(=O)c1ccc(C)cc1 | > 100 µM | > 100 µM | > 100 µM | > 100 µM | > 100 µM | > 100 µM | – | > 100 µM | – | – | – | – | – | – | – | – | –
9 | COc1ccc(C(=O)/C=C/c2cc(-c3cc(OC)c(OC)c(OC)c3)n[nH]2)cc1 | 3.63 µM | 5.85 µM | > 100 µM | – | 4.93 µM | 3.75 µM | 23.9 µM | – | 2.84 µM | 1.96 µM | 1.42 µM | 3.6 µM | 2.2 µM | 1.72 µM | 0.347 µM | 1.45 µM | –
10 | COC(=O)Cn1cnc2c(Cl)nc(Nc3ccccc3)nc21 | > 100 µM | 96.7 µM | 54.1 µM | > 100 µM | > 100 µM | > 100 µM | > 100 µM | 67.2 µM | – | – | – | – | – | – | – | – | –
11 | O=C(O)/C=C\C(=O)Nn1c(Cc2ccc(Cl)cc2)n[nH]c1=O | – | > 100 µM | > 100 µM | > 100 µM | > 100 µM | > 100 µM | > 100 µM | > 100 µM | – | – | – | – | – | – | – | – | –
12 | COc1ccc2cc(C(C)C(=O)N3C(=O)OCC3(C)C)ccc2c1 (centres undefined) | > 100 µM | – | – | > 100 µM | > 100 µM | > 100 µM | > 100 µM | > 100 µM | > 100 µM | – | – | – | – | – | – | – | –
13 | CC(C)(C)C1=C(Br)C(O)(C(C)(C)C)OP1(=O)c1ccccc1 (centres undefined) | > 100 µM | > 100 µM | > 100 µM | > 100 µM | – | > 100 µM | – | > 100 µM | – | – | – | – | – | – | – | – | –
14 | S=C1SC(=Nc2ccccc2)C(=Nc2ccccc2)N1c1ccc2ccccc2c1 | – | > 100 µM | > 100 µM | > 100 µM | > 100 µM | – | > 100 µM | > 100 µM | > 100 µM | – | – | – | – | – | – | – | –
15 | Cc1nc(Nc2ccccc2Cl)sc1C(=O)CC(=O)C(N)=O | > 100 µM | > 100 µM | > 100 µM | > 100 µM | > 100 µM | > 100 µM | – | > 100 µM | > 100 µM | – | – | – | – | – | – | – | –
16 | COc1ccccc1C1C(C#N)=C(N)Oc2n[nH]c(C)c21 (centres undefined) | > 100 µM | > 100 µM | > 100 µM | > 100 µM | > 100 µM | > 100 µM | > 100 µM | – | > 100 µM | > 100 µM | 22.8 µM | 27.8 µM | > 100 µM | > 100 µM | 37.8 µM | > 100 µM | > 100 µM
17 | C[C@H](C1CC2(C)OC2(C)C(=O)O1)[C@H]1CC[C@H]2[C@@H]3[C@@H]4O[C@@H]4[C@@]4(O)CC=CC(=O)[C@]4(C)[C@H]3CC[C@]12C (some centres undefined) | > 50 µM | – | – | > 50 µM | > 50 µM | > 50 µM | – | > 50 µM | > 50 µM | – | – | – | – | – | – | – | –
18 | CC(=O)OCC1OC(n2c(C)c(C)c(C)c(C#N)c2=S)C(OC(C)=O)C(OC(C)=O)C1OC(C)=O (centres undefined) | > 100 µM | > 100 µM | – | > 100 µM | > 100 µM | > 100 µM | > 100 µM | > 100 µM | 59.7 µM | – | – | – | – | – | – | – | –
19 | COC(=O)Nc1nc2ccc(NC(=O)c3ccc(I)cc3)cc2[nH]1 | > 100 µM | > 100 µM | > 100 µM | > 100 µM | > 100 µM | > 100 µM | – | > 100 µM | > 100 µM | – | – | – | – | – | – | – | –
20 | N#Cc1c(N)nc2c3c1NC(=O)C(C(N)=O)C3c1ccccc1O2 (centres undefined) | > 100 µM | > 100 µM | – | > 100 µM | > 100 µM | > 100 µM | > 100 µM | > 100 µM | > 100 µM | – | – | – | – | – | – | – | –
21 | O=c1[nH]c(=O)n(C2OC(CO)C(O)C2O)cc1OCCCc1ccccc1 (centres undefined) | > 100 µM | > 100 µM | > 100 µM | – | > 100 µM | > 100 µM | > 100 µM | > 100 µM | – | – | – | – | – | – | – | – | –
22 | O=C1/C(=C/c2cccc3ccccc23)CCc2ccc([N+](=O)[O-])cc21 | > 100 µM | > 100 µM | 47.7 µM | > 100 µM | > 100 µM | > 100 µM | – | 65.8 µM | > 100 µM | – | – | – | – | – | – | – | –
23 | NC(=O)CN1C=CCC(C(N)=O)=C1 | > 100 µM | > 100 µM | – | > 100 µM | > 100 µM | > 100 µM | – | > 100 µM | > 100 µM | – | – | – | – | – | – | – | –
24 | CC1=CCC[C@H]2[C@](C)(CC3=CC(=O)C(SCC(C)C)=CC3=O)[C@@H](C)CC[C@]12C | 29.7 µM | 3.72 µM | – | 30.8 µM | 34.7 µM | 31.5 µM | 59 µM | 28.8 µM | 25.5 µM | – | – | – | – | – | – | – | –
